# Measured values from US9464112B2, “Peptides having NF-κB inhibitory activity, or composition comprising same” (KNU-INDUSTRY COOPERATION FOUNDATION, priority 2012, dated 2016).
# How the values were obtained:
# Type in all cases: cell-based
# MMP-1 = MMP-1 expression in UVB-irradiated human dermal fibroblasts (Western blotting); settings: peptide 0.1˜2 μM, UVB 312 nm 12.5 mJ/cm^2, 48 hours, dose-dependent
# Excerpt: (§1) It is known that MMP-1, the expression of which is induced by ultraviolet stimulation in human dermal fibroblasts, degrades collagen fibers to facilitate cutaneous photoaging as well as wrinkle formation. Since the expression of MMP-1 is induced by NF-κB activation, we evaluate the inhibition thereof by the treatment of the peptides of the present invention, using human dermal fibroblasts (ATCC PCS-201-012, USA).
# (§2) The human dermal fibroblasts was irradiated with UVB (312 nm, 12.5 mJ/cm^2) and then treated with the peptide of SEQ ID NO: 1 in the concentrations of 0.1˜2 μM. After 48 hours, the cell extracts were subject to the Western blotting assay so as to measure the expressions of MMP-1 and procollagen type-1. […] Therefore, it can be seen that the peptide of the present invention can inhibit ultraviolet radiation-induced cutaneous photoaging.
# COX-2 = COX-2 expression in UVB-irradiated human keratinocytes HaCaT (Western blotting); settings: peptide 0.1˜2 μM, dose-dependent
# Procedure: (§3) We evaluated the inhibitory activities of the peptide of the present invention on expressions of the representative pro-inflammatory factors, i.e., TNF-α and IL-1α, the expressions of which are induced by ultraviolet stimulation. Specifically, the HaCaT cells (Molecular Biology Engineering Lab, Chemical & Biochemical Engineering, Dongguk University) were irradiated with UVB (312 nm, 12.5 mJ/cm^2) and then treated with the peptide of SEQ ID NO: 1 in the concentrations of 0.1˜2 μM. At this time, the control group was treated with dexamethasone (Dex) having the immunosuppressive function, at the irradiation of UVB. After 48 hours, the cell extracts were subject to the Western blotting assay so as to measure the expressions of TNF-α and IL-1α.
# (§4) And also, the cell extracts were subject to the enzyme immunoassay so as to evaluate the inhibitory effects on formation of PGE2 (one of pro-inflammatory factors). For this assay, we also used the group treated with dexamethasone at the irradiation of UVB as a control group. In addition, the expression of COX-2 (which is a PGE2 formation-mediating enzyme) was measured through the Western blotting assay; and the results thereof are shown in FIG. 8.
# TNF-α = TNF-α expression in UVB-irradiated human keratinocytes HaCaT (Western blotting); settings: UVB 312 nm 12.5 mJ/cm^2, 48 hours, peptide 0.1˜2 μM, dose-dependent
# Procedure: as §3
# PGE2 = PGE2 formation in UVB-irradiated human keratinocytes HaCaT (enzyme immunoassay); settings: peptide 0.1˜2 μM, dose-dependent
# Procedure: as §3, §4
# IL-1α = IL-1α expression in UVB-irradiated human keratinocytes HaCaT (Western blotting); settings: UVB 312 nm 12.5 mJ/cm^2, 48 hours, peptide 0.1˜2 μM, dose-dependent
# Procedure: as §3
# procollagen type-1 = assay: Procollagen type-1 expression in UVB-irradiated human dermal fibroblasts (Western blotting); settings: peptide 0.1˜2 μM, UVB 312 nm 12.5 mJ/cm^2, 48 hours, dose-dependent
# Excerpt: as §1, §2
substance,measurement,setting,value
"Arg-Phe-Arg (RFR; Peptide fragment) [SEQ ID NO: 1, peptide fragment derived from the NF-κB p65 subunit]",expression of MMP-1 increased by ultraviolet stimulation,MMP-1,reduced
same,expression of COX-2,COX-2,reduced
same,expression of TNF-α,TNF-α,reduced
same,PGE2 formation increased by ultraviolet stimulation,PGE2,reduced
same,expression of IL-1α,IL-1α,reduced
same,expression of procollagen type-1,procollagen type-1,increased
